# Laboratory results published in patent US6461997B1, “Triazole sulfones having herbicidal activity” (Monsanto Technology LLC, priority 1999, dated 2002).
# Key:
# [1] = system: AGSST (creeping bentgrass); test: Pre-emergence herbicidal activity, cool season; type: in vivo, Agrostis stolonifera; conditions: GR80 = lowest tested rate (300, 100, 30, 10 g/ha) with 80% or greater inhibition; approx. 14 days after treating; 18/13° C.
# Method in brief: (§1)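 Seeds sown in sterilised fertilised topsoil received surface-applied compound in 50:50 acetone/water, typically at 300, 100, 30 and 10 g/ha, then greenhouse-grown at 30/21° C (warm-season species) or 18/13° C (cool-season species). Percent inhibition versus untreated plants was scored at about 14 days, giving GR80; an asterisk marks activity short of 80% at the top rate.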
# ALOMY (blackgrass) = test: Pre-emergence herbicidal activity, cool season; type: in vivo, Alopecurus myosuroides; conditions: GR80 = lowest tested rate (300, 100, 30, 10 g/ha) with 80% or greater inhibition; approx. 14 days after treating; 18/13° C.
# Method in brief: (§2)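 Read-out: GR80, derived from percent growth inhibition relative to untreated plants at roughly 14 days after planting and treatment. Compounds went onto the surface of freshly seeded soil at 10–300 g/ha. Day/night regimes were 30/21 °C for millet and crabgrass, 18/13 °C for blackgrass and buckwheat.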
# SETVI (green foxtail) = test: Pre-emergence herbicidal activity, cool season; type: in vivo, Setaria viridis; conditions: GR80 = lowest tested rate (300, 100, 30, 10 g/ha) with 80% or greater inhibition; approx. 14 days after treating; 18/13° C.
# Method in brief: as §1
# [2] = system: GALAP (catchweed bedstraw); test: Pre-emergence herbicidal activity, cool season; type: in vivo, Galium aparine; conditions: lowest tested rate with 80% or greater inhibition; rates 300, 100, 30, 10 g/ha; about 14 days
# Method in brief: as §1
# [3] = system: BRAPP (broadleaf signalgrass); test: Pre-emergence herbicidal activity, warm season; type: in vivo, Brachiaria platyphylla; conditions: GR80 = lowest tested rate (300, 100, 30, 10 g/ha) with 80% or greater inhibition; approx. 14 days after treating; 30/21° C.
# Method in brief: as §1
# DIGSA (large crabgrass) = test: Pre-emergence herbicidal activity, warm season; type: in vivo, Digitaria sanguinalis; conditions: GR80 = lowest tested rate (300, 100, 30, 10 g/ha) with 80% or greater inhibition; approx. 14 days after treating; 30/21° C.
# Method in brief: as §2
# STEME (common chickweed) = test: Pre-emergence herbicidal activity, cool season; type: in vivo, Stellaria media; conditions: lowest tested rate with 80% or greater inhibition; rates 300, 100, 30, 10 g/ha; about 14 days
# Method in brief: as §1
# [4] = system: PANMI (wild proso millet); test: Pre-emergence herbicidal activity, warm season; type: in vivo, Panicum miliaceum; conditions: GR80 = lowest tested rate (300, 100, 30, 10 g/ha) with 80% or greater inhibition; approx. 14 days after treating; 30/21° C.
# Method in brief: as §2
# AMARE (redroot pigweed) = test: Pre-emergence herbicidal activity, warm season; type: in vivo, Amaranthus retroflexus; conditions: GR80 = lowest tested rate (300, 100, 30, 10 g/ha) with 80% or greater inhibition; approx. 14 days after treating; 30/21° C.
# Description: (§3) Tables 5 to 8 summarize results of tests conducted as described below to determine the pre-emergence herbicidal activity, in the form of a GR80 value, of illustrative compounds of this invention. […] Compounds of the invention were typically applied at rates of 300, 100, 30, and 10 g/ha. Where herbicidal activity was evident but 80% inhibition was not achieved at the highest rate tested, an asterisk (*) is shown in the following tables.
# (§4) The pre-emergence tests were conducted by the following procedure. Topsoil was sieved to pass through a 1.27 cm screen. Fertilizer was added to the topsoil and the mixture was then sterilized by heating. The topsoil mixture was placed in a pot and compacted to a depth of 1.0 to 1.25 cm from the top of the pot. Seeds of each of several monocotyledonous and dicotyledonous annual plant species were placed on top of the soil. Additional soil was subsequently placed over the seeds to level-fill the pot. A known amount of each test compound dissolved or suspended in an appropriate organic solvent was diluted with a 50:50 mix of acetone and water and applied to the surface of the soil. After treatment the plants were placed in a greenhouse where they received 0.64 cm of overhead irrigation. All subsequent watering consisted of a light overhead mist and/or subirrigation as needed for germination and growth. Tables 5 and 6 below relate to warm season plant species which were placed after pre-emergence treatment in a greenhouse with a 30/21° C. day/night temperature regime. Tables 7 and 8 below relates to cool season plant species placed after pre-emergence treatment in a greenhouse or growth chamber with an 18/13° C. day/night temperature regime.
# (§5) Approximately 14 days after planting and treating, the plants were observed and herbicidal efficacy recorded as percent inhibition by comparison with untreated plants.
# (§6) The plant species usually regarded as weeds which were utilized in the tests are identified in the tables below according to the following legend, in which “d” indicates a dicotyledonous species and “m” a monocotyledonous species. All monocotyledonous species included in the tests herein are grasses.
# POLCO (wild buckwheat) = test: Pre-emergence herbicidal activity, cool season; type: in vivo, Polygonum convolvulus; conditions: lowest tested rate with 80% or greater inhibition; rates 300, 100, 30, 10 g/ha; about 14 days
# Method in brief: as §2
# SASKR (russian thistle) = test: Pre-emergence herbicidal activity, cool season; type: in vivo, Salsola kali; conditions: lowest tested rate with 80% or greater inhibition; rates 300, 100, 30, 10 g/ha; about 14 days
# Method in brief: as §1
# LOLMG (annual ryegrass) = test: Pre-emergence herbicidal activity, cool season; type: in vivo, Lolium multiflorum; conditions: GR80 = lowest tested rate (300, 100, 30, 10 g/ha) with 80% or greater inhibition; approx. 14 days after treating; 18/13° C.
# Description: as §3, §4, §5, §6
# [5] = system: LAMPU (purple deadnettle); test: Pre-emergence herbicidal activity, cool season; type: in vivo, Lamium purpureum; conditions: lowest tested rate with 80% or greater inhibition; rates 300, 100, 30, 10 g/ha; about 14 days
# Method in brief: as §1
# SINAR (wild mustard) = test: Pre-emergence herbicidal activity, cool season; type: in vivo, Sinapis arvensis; conditions: lowest tested rate with 80% or greater inhibition; rates 300, 100, 30, 10 g/ha; about 14 days
# Method in brief: as §1
# [6] = system: VERPE (creeping speedwell); test: Pre-emergence herbicidal activity, cool season; type: in vivo, Veronica persicaria; conditions: lowest tested rate with 80% or greater inhibition; rates 300, 100, 30, 10 g/ha; about 14 days
# Method in brief: as §1
# SOLNI (black nightshade) = test: Pre-emergence herbicidal activity, warm season; type: in vivo, Solanum nigrum; conditions: GR80 = lowest tested rate (300, 100, 30, 10 g/ha) with 80% or greater inhibition; approx. 14 days after treating; 30/21° C.
# Method in brief: as §1
# [7] = system: SORHA (johnsongrass (seedling)); test: Pre-emergence herbicidal activity, warm season; type: in vivo, Sorghum halepense; conditions: GR80 = lowest tested rate (300, 100, 30, 10 g/ha) with 80% or greater inhibition; approx. 14 days after treating; 30/21° C.
# Method in brief: as §1
# SETFA (giant foxtail) = test: Pre-emergence herbicidal activity, warm season; type: in vivo, Setaria faberi; conditions: GR80 = lowest tested rate (300, 100, 30, 10 g/ha) with 80% or greater inhibition; approx. 14 days after treating; 30/21° C.
# Method in brief: as §1
# POROL (common purslane) = test: Pre-emergence herbicidal activity, warm season; type: in vivo, Portulaca oleracea; conditions: GR80 = lowest tested rate (300, 100, 30, 10 g/ha) with 80% or greater inhibition; approx. 14 days after treating; 30/21° C.
# Method in brief: as §1
# [8] = system: CHEAL (common lambsquarters); test: Pre-emergence herbicidal activity, warm season; type: in vivo, Chenopodium album; conditions: GR80 = lowest tested rate (300, 100, 30, 10 g/ha) with 80% or greater inhibition; approx. 14 days after treating; 30/21° C.
# Method in brief: as §1
# SORVU (shattercane) = test: Pre-emergence herbicidal activity, warm season; type: in vivo, Sorghum vulgare; conditions: GR80 = lowest tested rate (300, 100, 30, 10 g/ha) with 80% or greater inhibition; approx. 14 days after treating; 30/21° C.
# Description: as §3, §4, §5, §6
# [9] = system: CIRAR (canada thistle (seedling)); test: Pre-emergence herbicidal activity, warm season; type: in vivo, Cirsium arvense; conditions: GR80 = lowest tested rate (300, 100, 30, 10 g/ha) with 80% or greater inhibition; approx. 14 days after treating; 30/21° C.
# Description: as §3, §4, §5, §6
# ECHCG (barnyardgrass) = test: Pre-emergence herbicidal activity, warm season; type: in vivo, Echinochloa crus-galli; conditions: GR80 = lowest tested rate (300, 100, 30, 10 g/ha) with 80% or greater inhibition; approx. 14 days after treating; 30/21° C.
# Method in brief: as §1
# BROTE (downy brome) = test: Pre-emergence herbicidal activity, cool season; type: in vivo, Bromus tectorum; conditions: GR80 = lowest tested rate (300, 100, 30, 10 g/ha) with 80% or greater inhibition; approx. 14 days after treating; 18/13° C.
# Description: as §3, §4, §5, §6
SMILES,Pre-emergence activity (GR80) AGSST [1],Pre-emergence activity (GR80) ALOMY (ALOMY (blackgrass)),Pre-emergence activity (GR80) SETVI (SETVI (green foxtail)),"Pre-emergence activity GR80, GALAP [2]",Pre-emergence activity (GR80) DIGSA (DIGSA (large crabgrass)),"Pre-emergence activity GR80, STEME (STEME (common chickweed))",Pre-emergence activity (GR80) PANMI [4],Pre-emergence activity (GR80) AMARE (AMARE (redroot pigweed)),"Pre-emergence activity GR80, POLCO (POLCO (wild buckwheat))","Pre-emergence activity GR80, SASKR (SASKR (russian thistle))",Pre-emergence activity (GR80) LOLMG (LOLMG (annual ryegrass)),"Pre-emergence activity GR80, LAMPU [5]","Pre-emergence activity GR80, SINAR (SINAR (wild mustard))","Pre-emergence activity GR80, VERPE [6]",Pre-emergence activity (GR80) SORHA [7],Pre-emergence activity (GR80) SETFA (SETFA (giant foxtail)),Pre-emergence activity (GR80) CHEAL [8],Pre-emergence activity (GR80) ECHCG (ECHCG (barnyardgrass)),also measured
CCCN(CC)C(=O)n1cnc(S(=O)(=O)C(F)F)n1 [Example 28],30 g/ha,30 g/ha,30 g/ha,30 g/ha,300 g/ha,10 g/ha,300 g/ha,300 g/ha,[empty],30 g/ha,300 g/ha,30 g/ha,10 g/ha,10 g/ha,–,–,–,–,Pre-emergence activity (GR80) BRAPP [3]: 300 g/ha
CN(C(=O)n1cnc(S(=O)(=O)C(F)F)n1)C1CCCCC1 [Example 32],300 g/ha,300 g/ha,100 g/ha,100 g/ha,300 g/ha,300 g/ha,300 g/ha,300 g/ha,[empty],[empty],300 g/ha,[empty],100 g/ha,300 g/ha,30 g/ha,300 g/ha,300 g/ha,300 g/ha,Pre-emergence activity (GR80) SOLNI (SOLNI (black nightshade)): 300 g/ha; Pre-emergence activity (GR80) POROL (POROL (common purslane)): 100 g/ha; Pre-emergence activity (GR80) SORVU (SORVU (shattercane)): 300 g/ha; Pre-emergence activity (GR80) CIRAR [9]: 300 g/ha
CON(C)C(=O)n1cnc(S(=O)(=O)C(F)F)n1 [Example 34],–,–,300 g/ha,[empty],–,[empty],–,–,300 g/ha,300 g/ha,–,300 g/ha,300 g/ha,300 g/ha,–,–,–,–,Pre-emergence activity (GR80) BROTE (BROTE (downy brome)): 300 g/ha
CCCN(CC)C(=O)n1cnc(S(=O)(=O)C(F)(F)Br)n1 [Example 39],30 g/ha,300 g/ha,100 g/ha,100 g/ha,–,30 g/ha,300 g/ha,300 g/ha,100 g/ha,100 g/ha,300 g/ha,30 g/ha,30 g/ha,10 g/ha,100 g/ha,100 g/ha,300 g/ha,300 g/ha,–
